From ChEMBL document CHEMBL1146193, “Increased genome instability in Escherichia coli lon mutants: relation to emergence of multiple-antibiotic-resistant (Mar) mutants caused by insertion sequence elements and large tandem genomic amplifications” (2007)
≈ marks a conversion by molar mass, not a printed value.

Key:
Format in all cases: functional
Escherichia coli [1] = assay: Antimicrobial activity against Escherichia coli M043 mutant with AG100 lon4::IS186 marR::IS2 genotype
Escherichia coli [2] = assay: Antimicrobial activity against Escherichia coli M073 mutant with AG100 lon2::IS186 acrR::IS5 genotype
Escherichia coli [3] = assay: Antimicrobial activity against Escherichia coli M093 mutant with AG100 lon3::IS186 acrR::IS1 genotype
Escherichia coli [4] = assay: Antimicrobial activity against Escherichia coli AG112 mutant with AG100 marR genotype
Escherichia coli [5] = assay: Antimicrobial activity against Escherichia coli AG112 mutant with marR genotype after 250 generations in 5 ug/ml presence of tetracycline
Escherichia coli [6] = assay: Antimicrobial activity against Escherichia coli M124 mutant with AG100 lon4::IS186 acrR::IS genotype
Escherichia coli [7] = assay: Antimicrobial activity against Escherichia coli M114 mutant with AG100 lon4::IS186 marR::IS2 genotype
Escherichia coli [8] = assay: Antimicrobial activity against Escherichia coli M103 mutant with AG100 lon3::IS186 acrR-acrAB genotype
Escherichia coli [9] = assay: Antimicrobial activity against Escherichia coli M084 mutant AG100 lon4::IS186 genotype
Escherichia coli [10] = assay: Antimicrobial activity against Escherichia coli AG112 mutant with marR genotype after 125 generations in absence of tetracycline
Escherichia coli [11] = assay: Antimicrobial activity against Escherichia coli M013 mutant with AG100 delta-(lon-hupB-ppiD) dupIS5 genotype
Escherichia coli [12] = assay: Antimicrobial activity against Escherichia coli M044 mutant with AG100 lon4::IS186 marR::IS genotype
Escherichia coli [13] = assay: Antimicrobial activity against Escherichia coli M104 mutant with AG100 dupIS3 genotype
Escherichia coli [14] = assay: Antimicrobial activity against Escherichia coli M064 mutant with AG100 lon1::IS186 acrR::IS genotype
Escherichia coli [15] = assay: Antimicrobial activity against Escherichia coli M083 mutant with AG100 lon4::IS186 acrR::IS1 genotype
Escherichia coli [16] = assay: Antimicrobial activity against Escherichia coli M074 mutant with AG100 lon2::IS186 acrR::IS genotype
Escherichia coli [17] = assay: Antimicrobial activity against Escherichia coli AG100 mutant with argE3 thi-3 rpsL xyl mtl supE44 genotype

Row | SMILES | MIC (Escherichia coli [1]) | MIC (Escherichia coli [2]) | MIC (Escherichia coli [3]) | MIC (Escherichia coli [4]) | MIC (Escherichia coli [5]) | MIC (Escherichia coli [6]) | MIC (Escherichia coli [7]) | MIC (Escherichia coli [8]) | MIC (Escherichia coli [9]) | MIC (Escherichia coli [10]) | MIC (Escherichia coli [11]) | MIC (Escherichia coli [12]) | MIC (Escherichia coli [13]) | MIC (Escherichia coli [14]) | MIC (Escherichia coli [15]) | MIC (Escherichia coli [16]) | MIC (Escherichia coli [17])
1 | CC1(C)S[C@@H]2[C@H](NC(=O)[C@H](N)c3ccccc3)C(=O)N2[C@H]1C(=O)O [AMPICILLIN] | 6 mg/L (≈ 17.2 µM) | 6 mg/L (≈ 17.2 µM) | 6 mg/L (≈ 17.2 µM) | 6 mg/L (≈ 17.2 µM) | 32 mg/L | 3 mg/L (≈ 8.59 µM) | 8 mg/L (≈ 22.9 µM) | 4 mg/L (≈ 11.4 µM) | 3 mg/L (≈ 8.59 µM) | 12 mg/L (≈ 34.3 µM) | 3 mg/L (≈ 8.59 µM) | 6 mg/L (≈ 17.2 µM) | 3 mg/L (≈ 8.59 µM) | 6 mg/L (≈ 17.2 µM) | 4 mg/L (≈ 11.4 µM) | 6 mg/L (≈ 17.2 µM) | 
2 | O=C(N[C@H](CO)[C@H](O)c1ccc([N+](=O)[O-])cc1)C(Cl)Cl [CHLORAMPHENICOL] | 64 mg/L (≈ 198 µM) | 32 mg/L (≈ 99 µM) | 32 mg/L (≈ 99 µM) | 24 mg/L (≈ 74.3 µM) | 256 mg/L | 24 mg/L (≈ 74.3 µM) | 64 mg/L (≈ 198 µM) | 24 mg/L (≈ 74.3 µM) |  | 24 mg/L (≈ 74.3 µM) |  | 32 mg/L (≈ 99 µM) | 32 mg/L (≈ 99 µM) | 32 mg/L (≈ 99 µM) | 32 mg/L (≈ 99 µM) | 48 mg/L (≈ 149 µM) | 4 mg/L (≈ 12.4 µM)
3 | CCn1cc(C(=O)O)c(=O)c2ccc(C)nc21 [NALIDIXIC ACID] | 8 mg/L (≈ 34.4 µM) | 8 mg/L (≈ 34.4 µM) | 8 mg/L (≈ 34.4 µM) | 12 mg/L (≈ 51.7 µM) | 192 mg/L | 8 mg/L (≈ 34.4 µM) | 8 mg/L (≈ 34.4 µM) | 6 mg/L (≈ 25.8 µM) | 6 mg/L (≈ 25.8 µM) | 24 mg/L (≈ 103 µM) |  | 12 mg/L (≈ 51.7 µM) | 8 mg/L (≈ 34.4 µM) | 12 mg/L (≈ 51.7 µM) | 8 mg/L (≈ 34.4 µM) | 8 mg/L (≈ 34.4 µM) | 6 mg/L (≈ 25.8 µM)
4 | CCn1cc(C(=O)O)c(=O)c2cc(F)c(N3CCNCC3)cc21 [NORFLOXACIN] | 0.38 mg/L (≈ 1.19 µM) | 0.19 mg/L (≈ 0.595 µM) | 0.25 mg/L (≈ 0.783 µM) | 0.38 mg/L (≈ 1.19 µM) | 2 mg/L | 0.25 mg/L (≈ 0.783 µM) | 0.38 mg/L (≈ 1.19 µM) | 0.25 mg/L (≈ 0.783 µM) | 0.13 mg/L (≈ 0.407 µM) | 0.75 mg/L (≈ 2.35 µM) | 0.13 mg/L (≈ 0.407 µM) | 0.25 mg/L (≈ 0.783 µM) | 0.25 mg/L (≈ 0.783 µM) | 0.19 mg/L (≈ 0.595 µM) | 0.25 mg/L (≈ 0.783 µM) | 0.19 mg/L (≈ 0.595 µM) | 0.02 mg/L (≈ 0.0626 µM)
5 | CO[C@H]1/C=C/O[C@@]2(C)Oc3c(C)c(O)c4c(O)c(c(/C=N/N5CCN(C)CC5)c(O)c4c3C2=O)NC(=O)/C(C)=C\C=C\[C@H](C)[C@H](O)[C@@H](C)[C@@H](O)[C@@H](C)[C@H](OC(C)=O)[C@@H]1C [RIFAMPIN] | 24 mg/L (≈ 29.2 µM) | 24 mg/L (≈ 29.2 µM) | 24 mg/L (≈ 29.2 µM) |  |  | 16 mg/L (≈ 19.4 µM) | 24 mg/L (≈ 29.2 µM) | 24 mg/L (≈ 29.2 µM) | 16 mg/L (≈ 19.4 µM) |  | 16 mg/L (≈ 19.4 µM) | 24 mg/L (≈ 29.2 µM) | 16 mg/L (≈ 19.4 µM) | 24 mg/L (≈ 29.2 µM) | 16 mg/L (≈ 19.4 µM) | 24 mg/L (≈ 29.2 µM) | 16 mg/L (≈ 19.4 µM)
6 | CN(C)[C@@H]1C(O)=C(C(N)=O)C(=O)[C@@]2(O)C(O)=C3C(=O)c4c(O)cccc4[C@@](C)(O)[C@H]3C[C@@H]12 [TETRACYCLINE] | 16 mg/L (≈ 36 µM) | 12 mg/L (≈ 27 µM) | 4 mg/L (≈ 9 µM) | 8 mg/L (≈ 18 µM) | 128 mg/L | 6 mg/L (≈ 13.5 µM) | 12 mg/L (≈ 27 µM) | 6 mg/L (≈ 13.5 µM) | 4 mg/L (≈ 9 µM) | 24 mg/L (≈ 54 µM) | 6 mg/L (≈ 13.5 µM) | 4 mg/L (≈ 9 µM) | 6 mg/L (≈ 13.5 µM) | 8 mg/L (≈ 18 µM) | 4 mg/L (≈ 9 µM) | 4 mg/L (≈ 9 µM) | 2 mg/L (≈ 4.5 µM)
